One assay has as its system STAT5a-GFP. In words: STAT5a Tyr694 phosphorylation in STAT5a-GFP-transfected K562 cells (Western blot). As to conditions: 4 h, result in words. It counts as cell-based, human. On the technique in general: In western blotting, separated proteins are transferred to a membrane and probed.
A further assay deals with T1, STAT5a SH2 domain (Homo sapiens, UniProt P42229).
T1 sequence (P42229 1-794): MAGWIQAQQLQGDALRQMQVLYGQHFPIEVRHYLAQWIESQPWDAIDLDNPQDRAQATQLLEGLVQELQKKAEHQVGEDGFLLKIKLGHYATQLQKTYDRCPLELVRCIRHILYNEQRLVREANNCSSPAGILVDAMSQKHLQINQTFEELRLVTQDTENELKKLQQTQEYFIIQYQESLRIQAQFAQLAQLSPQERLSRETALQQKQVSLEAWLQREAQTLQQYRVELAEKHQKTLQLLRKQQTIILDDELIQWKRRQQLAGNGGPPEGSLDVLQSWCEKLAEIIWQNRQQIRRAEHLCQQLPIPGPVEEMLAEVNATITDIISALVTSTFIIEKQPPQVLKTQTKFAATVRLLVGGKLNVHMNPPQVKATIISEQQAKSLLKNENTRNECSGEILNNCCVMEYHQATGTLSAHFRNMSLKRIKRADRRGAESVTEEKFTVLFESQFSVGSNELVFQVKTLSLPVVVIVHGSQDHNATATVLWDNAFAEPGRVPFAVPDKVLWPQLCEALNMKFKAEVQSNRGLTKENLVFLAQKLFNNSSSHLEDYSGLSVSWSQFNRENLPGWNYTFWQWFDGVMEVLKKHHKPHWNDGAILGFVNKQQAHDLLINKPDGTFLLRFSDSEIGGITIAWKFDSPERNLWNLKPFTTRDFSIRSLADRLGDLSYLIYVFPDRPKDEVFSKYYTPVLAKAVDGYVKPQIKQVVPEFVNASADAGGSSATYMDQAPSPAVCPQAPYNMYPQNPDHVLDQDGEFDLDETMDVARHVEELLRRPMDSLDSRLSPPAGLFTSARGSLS
In words: Fluorescence polarization assay, STAT5a SH2 domain. In kind it is binding. As to conditions: mean ± s.d. Background: Fluorescence polarisation rises when a labelled molecule tumbles more slowly, as on binding a larger partner.

The target in the next assay is T2, STAT5b-GFP (Homo sapiens, UniProt P51692).
T2 sequence (P51692 1-787): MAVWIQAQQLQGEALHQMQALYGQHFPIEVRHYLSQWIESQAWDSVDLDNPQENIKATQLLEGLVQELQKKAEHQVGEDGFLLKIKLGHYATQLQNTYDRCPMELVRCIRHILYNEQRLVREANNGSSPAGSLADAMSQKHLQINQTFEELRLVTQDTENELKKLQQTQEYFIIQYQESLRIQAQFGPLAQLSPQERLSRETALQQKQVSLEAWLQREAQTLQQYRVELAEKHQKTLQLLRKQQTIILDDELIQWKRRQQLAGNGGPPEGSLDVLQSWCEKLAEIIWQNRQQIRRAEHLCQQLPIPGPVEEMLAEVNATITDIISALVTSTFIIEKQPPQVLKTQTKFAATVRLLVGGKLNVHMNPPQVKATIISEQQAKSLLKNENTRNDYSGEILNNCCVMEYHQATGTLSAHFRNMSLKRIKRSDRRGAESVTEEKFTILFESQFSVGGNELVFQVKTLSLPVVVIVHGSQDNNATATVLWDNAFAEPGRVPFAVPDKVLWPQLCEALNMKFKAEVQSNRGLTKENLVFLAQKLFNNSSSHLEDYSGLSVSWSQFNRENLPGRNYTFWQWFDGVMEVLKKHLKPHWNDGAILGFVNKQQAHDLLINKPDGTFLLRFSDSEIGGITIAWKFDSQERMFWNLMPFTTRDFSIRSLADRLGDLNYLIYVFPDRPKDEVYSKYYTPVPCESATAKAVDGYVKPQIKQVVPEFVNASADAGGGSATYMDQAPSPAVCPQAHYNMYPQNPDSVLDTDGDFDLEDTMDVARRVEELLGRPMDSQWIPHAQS
The experiment in a line: STAT5b Tyr699 phosphorylation in STAT5b-GFP-transfected K562 cells (Western blot). In kind it is cell-based.

The target in another assay is T3, Lck SH2 (Homo sapiens, UniProt P06239).
T3 construct: the more distantly related SH2 domain of the tyrosine kinase Lck
The experiment in a line: Fluorescence polarization assay, Lck SH2. It counts as binding. As to conditions: read-out: Lck SH2 maximum inhibition.

Another assay has as its target T4, STAT5b Arg618Ala (Homo sapiens, UniProt P51692, R618A).
T4 sequence (P51692 1-787 R618A): T2 sequence (P51692 1-787) with R618A
In words: Isothermal titration calorimetry, STAT5b Arg618Ala. In kind it is binding. As to conditions: ITC, 25 °C. (In general: Isothermal titration calorimetry measures the heat released or taken up as one component is titrated into another.)

SMILES strings stand for the structures. Numbering of substitutions follows the chain as printed.

T3 sequence (P06239 127-224 limits assumed): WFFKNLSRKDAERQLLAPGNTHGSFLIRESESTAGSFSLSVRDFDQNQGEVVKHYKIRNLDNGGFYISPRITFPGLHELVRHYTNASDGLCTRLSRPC

Consider `O=C(COc1ccc(C(=O)Nc2ccc(Oc3ccccc3)cc2)cc1)NCc1ccc(OP(=O)(O)O)c(OP(=O)(O)O)c1` [compound 4, 4-((2-(4-((4-phenoxyphenyl)carbamoyl)phenoxy)acetamido)methyl)-1,2-phenylene bis(dihydrogen phosphate)], for which the “inhibition of STAT5a phosphorylation” value with STAT5a-GFP was “did not show significant activity”. Affinity on STAT5a SH2 domain (converted from IC50 using the published equation, n = 3) was put at a Ki of 1300 ± 100 nM. Further, 2700 ± 200 nM corresponded to half-maximal inhibition against STAT5a SH2 domain (fluorescence polarization, three independent experiments) (IC50). Also, the “inhibition of STAT5b phosphorylation” value against STAT5b-GFP is reported as “did not show significant activity”. The inhibition – broadly, the drop in the measured response relative to a control, in per cent – at 40 µM at Lck SH2 was 25 ± 2%. The Kd (in general, the constant that tells how readily two partners part at equilibrium) on STAT5b Arg618Ala is 5600 ± 1700 nM.

The values are drawn from PMC5429769, “Rational development of Stafib-2: a selective, nanomolar inhibitor of the transcription factor STAT5b” (Scientific Reports, 2017).
